The results in this text go back to US20230381139A1, “METHODS OF TREATING AND/OR PREVENTING ALZHEIMER’S DISEASE WITH R-CARVEDILOL” (priority 2020, published 2023).

One experiment concerns Aβ. Briefly: Aβ accumulation (immunohistochemical staining and immunoblotting) in 5×FAD+/− mice. It is filed as in vivo, mouse. To be noted: 5×FAD+/− mice 3-4, 4-5 and 6-7 months old after 1-month treatment with 3.2 mg/kg/day; vs DMSO. The method, then: Adult genetically engineered mice, 5×FAD^+/− (Oakley et al., 2006), RyR2-E4872Q^+/− (EQ^+/−) (Chen et al., 2014), 5×FAD^+/−/RyR2-E4872Q^+/− (5×FAD^+/−/EQ^+/−), and wildtype (WT) littermates of both sexes were used. R-carvedilol (R-CV) (at doses of 0.8, 1.6 or 3.2 mg/kg/day), racemic carvedilol (3.2 mg/kg/day), and vehicle control (DMSO) were delivered to 5×FAD^+/− mice in drinking water for one month, starting at different ages before (2-3 months old) or after (3-4 months old) the occurrence of AD pathologies (Oakley et al., 2006). To assess the effects of genetically and pharmacologically limiting RyR2 open time on the prevention and rescue of AD deficits in different stages (early, moderate, and late) of AD progression, animals at different ages (from 2-15 months) were used. As reported (Oakley et al., 2006), there was an age-dependence of AD progression in the 5×FAD^+/− mice. No sex-dependent differences in AD progression in these mice was observed. For 2-photon Ca^2+ imaging experiments, 5×FAD, RyR2 WT, and RyR2 mutant mice were cross-bred with the heterozygous Thy1-GCaMP6f transgenic mice (Chen et al., 2012; Chen et al., 2013) (GP5.17, JAX 025393) to express the GCaMP6f Ca^2+ sensing probe (driven by the Thy1 promotor) in hippocampal neurons in each of the genotypes used.
Immunoblotting analysis was carried out using the method described previously (Rosen et al., 2010). […]
Background: In western blotting, separated proteins are transferred to a membrane and probed.

In another experiment the test system is 3×TG+/− mice. Put plainly: Learning and memory tests (Morris water maze, novel object recognition) in 3×TG+/− mice. It is filed as in vivo, mouse. To be noted: 12-15 months old 3×TG+/− mice, 3.2 mg/kg/day for one month; vs DMSO. How it is done:
Genetically engineered mice of 12-15 months old, 3×TG+/− (Oddo et al., 2003), RyR2-E4872Q+/− (EQ+/−)(Chen et al., 2014), 3×TG+/−/RyR2-E48720+/− (3×TG+/−/EQ+/−), and WT littermates of both sexes were used. Sex differences, which may produce biological variables, were not investigated in this study. R-carvedilol (R-CV) (3.2 mg/kg/day) and vehicle control (DMSO) were delivered to 3×TG+/− mice in drinking water for one month. As shown previously, only heterozygous RyR2-E4872Q+/− mutant mice were produced as homozygous E4872Q+/+mutation is embryonic lethal (Chen et al., 2014). Functional RyR2s are tetrameric channels formed by 4 RyR2 monomers. The heterozygous E4872Q+/− mutant mice (harboring one WT allele and one E4872Q mutant allele) will produce a mixture of homo- and hetero-tetrameric channels that contain the WT, E48720 mutant, or both WT/E4872Q mutant monomers. Thus, the RyR2-E4872Q mutation can exert its negative impact not only on the function of the E4872Q homo-tetramers, but also on the function of the WT monomer in the WT/E4872Q hetero-tetrameric channels.
The learning and memory of mice with all genotypes were evaluated using the Morris water maze (MWM) test, the Barnes maze (BM) test, and/or the novel object recognition (NOR) test. Experiments were carried out blindly. For the MWM test, mice at different ages were trained to localize a hidden escape platform (10×10 cm) in a circular pool (116.84 cm in diameter, 50 cm in depth) (San Diego Instruments, CA) via distal visual cue. The platform was submerged 1-2 cm beneath the surface in water (22-24°C.), which was rendered opaque by addition of milk powder. The localization of the pool in relation to visual cues was maintained constantly during the entire task. The cues were distinct in color and shape. Digital division of the tracking area (pool) into four quadrants was performed by the SMART video tracking system, Smart 3.0 (Panlab Harvard Apparatus; Barcelona Spain). The escape platform was placed in the centre of the south-west quadrant for the entirety of the learning phase (4 training days) and digitally defined as target. Spatial training consisted of 4 days with 5 trials per mouse per day. Mice were released with their heads facing the pool wall at one of four entry locations (north, east, south and west) in a non-repetitive random order. Swimming was automatically video-tracked until the subject found the escape platform and remained on it (≥5 sec), or until a maximum of 60 seconds. […] In between trials (inter-trial interval ≥10 min), mice were housed in heated cages to avoid performance deficits due to exhaustion or hypothermia. The latency and swimming speed to reach the escape platform were recorded for comparison. After the learning phase, memory retention was evaluated by one probe trial 24 hours after the last training session. The escape platform was removed before mice were released from the north entry point into the pool. Their swimming was video-tracked for 60 seconds. […] The percentage of time mice spent in the target quadrant (including the target) were measured for comparison.
For the NOR test, mice were habituated for 10 min per mouse in an equally illuminated, odor-free, white, plastic box (40×40×50 cm^3) embedded with fresh aspen shavings and shreds. […] Mice were video recorded during this familiarizing phase. Side preferences was evaluated by dividing the time a mouse spent exploring one object by the time they spent at the other object. […]

For `COc1ccccc1OCCNC[C@@H](O)COc1cccc2[nH]c3ccccc3c12` [R-carvedilol, R-(+)-carvedilol], in the experiment on Aβ, the “Aβ accumulation (plaques, total Aβ and Aβ (1-42) levels)” value is listed as “without affecting”. In the experiment with 3×TG+/− mice, the “discrimination index in the NOR test” value is given as “increased”, the “latency to the target platform in the MWM test” value is reported as “significantly shortened”, the “swimming speed in the MWM test” value is recorded as “increased” and the “time spent in the target zone in the MWM test” value was “increased”. The “walking velocity in the NOR test” value with 3×TG+/− mice is “increased”.
